Source: the NIST ThermoML archive (doi:10.1021/je060271a)
Values joined by “and” are separate entries in the source; they are usually repeats but may differ in a detail not shown here. Equal values may be shown once. ± gives the expanded uncertainty stated by the source.

Settings: 303.16 K, Liquid, Vibrating tube method

CCCC(=O)OCC(COC(=O)CCC)(COC(=O)CCC)COC(=O)CCC [pentaerythritol tetrabutyrate]
Settings | mass density
3999.8 kPa | 1044.9 ± 1.2 kg/m3
4021.6 kPa | 1044.7 ± 1.2 kg/m3
4043.6 kPa | 1044.8 ± 1.2 kg/m3
4069.7 kPa | 1044.7 ± 1.2 kg/m3
4092.1 kPa | 1044.9 ± 1.2 kg/m3
4114.1 kPa | 1044.9 ± 1.2 kg/m3
4137.5 kPa | 1044.9 ± 1.2 kg/m3
4161.7 kPa | 1045 ± 1.2 kg/m3
4182.5 kPa | 1044.9 ± 1.2 kg/m3
4206.7 kPa | 1045.1 ± 1.2 kg/m3
4227.1 kPa | 1044.9 ± 1.2 kg/m3
4251.9 kPa | 1044.9 ± 1.2 kg/m3
4272.5 kPa | 1044.9 ± 1.2 kg/m3
4293.5 kPa | 1045.1 ± 1.2 kg/m3
4314.4 kPa | 1045 ± 1.2 kg/m3
4335.5 kPa | 1045 ± 1.2 kg/m3
4361 kPa | 1045.1 ± 1.2 kg/m3
4381.9 kPa | 1045 ± 1.2 kg/m3
4403.9 kPa | 1045 ± 1.2 kg/m3
4429.5 kPa | 1045.1 ± 1.2 kg/m3
4451.4 kPa | 1045.1 ± 1.2 kg/m3
4473.3 kPa | 1044.9 ± 1.2 kg/m3
4495 kPa | 1045.2 ± 1.2 kg/m3
4520.9 kPa | 1045.2 ± 1.2 kg/m3
4542.9 kPa | 1045.2 ± 1.2 kg/m3
4569.8 kPa | 1045.3 ± 1.2 kg/m3
4592.6 kPa | 1045.1 ± 1.3 kg/m3
4616.5 kPa | 1045.2 ± 1.2 kg/m3
4644.7 kPa | 1045.3 ± 1.2 kg/m3
4667.4 kPa | 1045.2 ± 1.2 kg/m3
4686.4 kPa | 1045.3 ± 1.2 kg/m3
4703.6 kPa | 1045.4 ± 1.2 kg/m3
4720.4 kPa | 1045.3 ± 1.2 kg/m3
4741.5 kPa | 1045.3 ± 1.2 kg/m3
4758.3 kPa | 1045.4 ± 1.2 kg/m3
4771.9 kPa | 1045.4 ± 1.2 kg/m3
4786.8 kPa | 1045.4 ± 1.2 kg/m3
4797.7 kPa | 1045.2 ± 1.2 kg/m3
4827.1 kPa | 1045.4 ± 1.2 kg/m3
4830.1 kPa | 1045.3 ± 1.2 kg/m3
4830.9 kPa | 1045.3 ± 1.2 kg/m3
4834.9 kPa | 1045.4 ± 1.2 kg/m3
4837.9 kPa | 1045.4 ± 1.2 kg/m3
4839.4 kPa | 1045.4 ± 1.2 kg/m3
4840.5 kPa | 1045.3 ± 1.2 kg/m3
4841.7 kPa | 1045.4 ± 1.2 kg/m3
4842.2 kPa | 1045.4 ± 1.2 kg/m3
4842.7 kPa | 1045.4 ± 1.2 kg/m3
4842.9 kPa | 1045.3 ± 1.2 kg/m3
4843.4 kPa | 1045.4 ± 1.2 kg/m3 and 1045.3 ± 1.2 kg/m3
4843.9 kPa | 1045.3 ± 1.2 kg/m3 and 1045.4 ± 1.2 kg/m3
4844.1 kPa | 1045.3 ± 1.2 kg/m3
4844.4 kPa | 1045.4 ± 1.2 kg/m3
4865 kPa | 1045.3 ± 1.2 kg/m3
4897.7 kPa | 1045.4 ± 1.2 kg/m3
4931.1 kPa | 1045.4 ± 1.2 kg/m3
4970.1 kPa | 1045.4 ± 1.2 kg/m3
4994.6 kPa | 1045.4 ± 1.2 kg/m3
5016.4 kPa | 1045.4 ± 1.2 kg/m3
5038.9 kPa | 1045.5 ± 1.2 kg/m3
5061.8 kPa | 1045.5 ± 1.2 kg/m3
5088.8 kPa | 1045.5 ± 1.2 kg/m3
5111.4 kPa | 1045.4 ± 1.2 kg/m3
5139.1 kPa | 1045.4 ± 1.2 kg/m3
5162.8 kPa | 1045.5 ± 1.2 kg/m3
5186.5 kPa | 1045.5 ± 1.2 kg/m3
5210.6 kPa | 1045.6 ± 1.2 kg/m3
5239.4 kPa | 1045.7 ± 1.2 kg/m3
5264.7 kPa | 1045.6 ± 1.2 kg/m3
5290.3 kPa | 1045.6 ± 1.2 kg/m3
5317.3 kPa | 1045.7 ± 1.2 kg/m3
5342.9 kPa | 1045.5 ± 1.2 kg/m3
5367.5 kPa | 1045.7 ± 1.2 kg/m3
5393.1 kPa | 1045.6 ± 1.2 kg/m3
5414.2 kPa | 1045.7 ± 1.2 kg/m3
5436 kPa | 1045.7 ± 1.2 kg/m3
5462.1 kPa | 1045.7 ± 1.2 kg/m3
5484.2 kPa | 1045.7 ± 1.2 kg/m3
5506.7 kPa | 1045.7 ± 1.2 kg/m3
5533.5 kPa | 1045.7 ± 1.2 kg/m3
5556 kPa | 1045.9 ± 1.2 kg/m3
5579 kPa | 1045.8 ± 1.2 kg/m3
5603.2 kPa | 1045.8 ± 1.2 kg/m3
5627.4 kPa | 1045.9 ± 1.3 kg/m3
5651.3 kPa | 1045.8 ± 1.2 kg/m3
5674.9 kPa | 1045.9 ± 1.2 kg/m3
5703.6 kPa | 1045.9 ± 1.2 kg/m3
5728 kPa | 1046 ± 1.2 kg/m3
5753.1 kPa | 1045.9 ± 1.2 kg/m3
5783.4 kPa | 1046 ± 1.2 kg/m3
5808.8 kPa | 1046 ± 1.2 kg/m3
5831.6 kPa | 1045.9 ± 1.2 kg/m3
5852.2 kPa | 1046 ± 1.2 kg/m3
5876.5 kPa | 1046.1 ± 1.2 kg/m3
5897.6 kPa | 1046.1 ± 1.3 kg/m3
5918.4 kPa | 1046.1 ± 1.2 kg/m3
5939.8 kPa | 1046.1 ± 1.3 kg/m3
5964.7 kPa | 1046.1 ± 1.2 kg/m3
5986.2 kPa | 1046.1 ± 1.2 kg/m3
6007.4 kPa | 1046.3 ± 1.2 kg/m3
6033.9 kPa | 1046.1 ± 1.2 kg/m3
6056.2 kPa | 1046.2 ± 1.2 kg/m3
6079 kPa | 1046.2 ± 1.2 kg/m3
6101.4 kPa | 1046.1 ± 1.2 kg/m3
6124.1 kPa | 1046.2 ± 1.2 kg/m3
6142.1 kPa | 1046.1 ± 1.2 kg/m3
6159.7 kPa | 1046.1 ± 1.2 kg/m3
6178 kPa | 1046.1 ± 1.2 kg/m3
6190.3 kPa | 1046.2 ± 1.2 kg/m3
6202.4 kPa | 1046.2 ± 1.2 kg/m3
6213.1 kPa | 1046.2 ± 1.2 kg/m3
6221.2 kPa | 1046.3 ± 1.2 kg/m3
6226.4 kPa | 1046.2 ± 1.2 kg/m3
6231.1 kPa | 1046.2 ± 1.2 kg/m3
6237.5 kPa | 1046.3 ± 1.2 kg/m3
6242.1 kPa | 1046.3 ± 1.2 kg/m3
6247.5 kPa | 1046.2 ± 1.3 kg/m3
6252.7 kPa | 1046.3 ± 1.3 kg/m3
6258.9 kPa | 1046.2 ± 1.3 kg/m3
6263.7 kPa | 1046.2 ± 1.3 kg/m3
6268.7 kPa | 1046.4 ± 1.3 kg/m3
6273.9 kPa | 1046.3 ± 1.3 kg/m3
6280.5 kPa | 1046.3 ± 1.3 kg/m3
6285.5 kPa | 1046.3 ± 1.3 kg/m3
6290.3 kPa | 1046.4 ± 1.3 kg/m3
6296 kPa | 1046.2 ± 1.2 kg/m3
6300.7 kPa | 1046.2 ± 1.2 kg/m3
6304.9 kPa | 1046.2 ± 1.2 kg/m3
6309.5 kPa | 1046.2 ± 1.2 kg/m3
6312.6 kPa | 1046.3 ± 1.2 kg/m3
6314.7 kPa | 1046.4 ± 1.3 kg/m3
6316.4 kPa | 1046.2 ± 1.2 kg/m3
6325.3 kPa | 1046.3 ± 1.3 kg/m3
6353.3 kPa | 1046.3 ± 1.3 kg/m3
6384.4 kPa | 1046.4 ± 1.2 kg/m3
6414.9 kPa | 1046.3 ± 1.2 kg/m3
6445.5 kPa | 1046.5 ± 1.3 kg/m3
6469.5 kPa | 1046.4 ± 1.3 kg/m3
6493.9 kPa | 1046.3 ± 1.2 kg/m3
6597.9 kPa | 1046.5 ± 1.3 kg/m3
6628 kPa | 1046.5 ± 1.3 kg/m3
6653.7 kPa | 1046.6 ± 1.3 kg/m3
6679.6 kPa | 1046.5 ± 1.3 kg/m3
6706.4 kPa | 1046.5 ± 1.3 kg/m3
6732.8 kPa | 1046.5 ± 1.3 kg/m3
6763.9 kPa | 1046.7 ± 1.3 kg/m3
